From a melting point compilation (Tetko et al.; mined from patent text by program, amines drawn as free bases though some values may be those of a salt)

Compound | melting point
CC(S)C(=O)Nc1ccc(C2=NNC(=O)CC2C)cc1 (stereo unspecified) | 236 to 237 °C
Cc1cc(C)c(S(=O)(=O)NC(C)CS)c(C)c1 (stereo unspecified) | 74 to 76 °C
CC(C)(C=CBr)C(=O)Nc1ccc(Cl)cc1 | 134 to 135 °C
CC(=O)SC(CC(=O)c1ccc(Cl)cc1)C(=O)O (stereo unspecified) | 68 to 69 °C
CCOC(=O)C(=CNNc1c(Cl)cc(C(F)(F)F)cc1Cl)C(C)=O | 75 to 76 °C
Cn1nc(N2CCNCC2)c2ccccc21 | 100 to 102 °C
OCCC(c1ccccc1)C(O)(c1ccccc1)c1ccccc1 (stereo unspecified) | 112 to 113 °C
CCN(CC)CCCN1CCN(c2cc(-c3ccnc(NCc4cccc(OC)c4)n3)cc3ccc(OC)cc23)CC1 | 156 to 160 °C
COc1cc(C(=O)c2ccccc2)cc([N+](=O)[O-])c1OC | 78 to 80 °C
COc1cc(OC)nc(C2(OC)OC(=O)c3c(Cl)cccc32)n1 (stereo unspecified) | 180 to 183 °C
COc1ccc(C(=O)Nc2nc(-c3ccco3)c(-c3ccncc3)s2)cc1 | 235 to 245 °C
O=C1NC(=O)c2c1c(-c1ccccc1Cl)cc1c2c2cc(O)ccc2n1CCC(O)CO (stereo unspecified) | 263 to 267 °C
CSC(=NS(=O)(=O)c1ccccc1Cl)SC | 119 to 123 °C
CNCC(O)C(Oc1ccc2c(c1)OCO2)c1ccccc1 (stereo unspecified) | 100 to 122 °C
CCCNC(=O)NC1Cc2ccc(C3=NNC(=O)CC3)cc2C1 (stereo unspecified) | 214 to 216 °C
CC(C)CCN1C(=O)C2(COc3cc(O)ccc32)c2ccccc21 (stereo unspecified) | 101 to 103 °C
NC1(NC(=O)C(F)(F)F)CN(c2c(F)cc3c(=O)c(C(=O)O)cn(-c4ccc(F)cc4F)c3c2F)C1 | 190 to 196 °C
O=C(CC(F)(F)F)CS(=O)(=O)C(c1ccc(Cl)cc1)c1ccc(Cl)cc1 | 48 to 50 °C
CCOC(=O)N1CCC(O)(c2cccs2)CC1 | 242 °C
COc1cc(OCC(=O)O)c(C)cc1SCc1ccc(-c2cccc(OC(F)(F)F)c2)cc1 | 137 °C
COc1ccc(CNc2nc(NCCCc3ccc(C(C)=O)cc3)nc3ncccc23)cc1OC | 184 to 185 °C
CC(c1cccc(Cl)c1)(n1ccnc1)C1(O)C2CC3CC(C2)CC1C3 (stereo unspecified) | 121 °C
CC(C(O)C(C)(C)Cc1ccc(Cl)c(OC(F)(F)F)c1)n1cncn1 (stereo unspecified) | 109 to 110 °C
CCOC(=O)c1c(OC(=O)C=C(C)C)c(CC)c(C)[nH]c1=O | 166 °C
Cc1nc(-c2ccc(CN3C(=O)C4(COc5cc6c(cc54)OCCO6)c4ccccc43)cc2)no1 (stereo unspecified) | 174 to 175 °C
Cc1nn(-c2cncc(F)c2)cc1-c1cccc(C(F)(F)F)n1 | 130 to 131 °C

Compound | melting point
COC(=O)C#CC(=O)c1ccc2c(c1)OCO2 | 95 to 97 °C
COc1cc2c(cc1OC)C1C(Cl)=NC=NC1N2 (stereo unspecified) | 148 to 150 °C
O=C(CSc1ccc(O)cc1)NC(=O)c1ccccc1 | 149 to 151 °C
O=C(c1ccc(-c2cnc3c(c2)N(Cc2cc(F)ccc2F)CCN3)cc1)N1CCC(N2CCCC2)CC1 | 202 to 204 °C
NCCCNc1n[nH]c(=O)c2ccccc12 | 147 to 148 °C
CCn1c(N)c(C(=O)NC)c(=O)c2ccc(Cl)nc21 | 283 to 286 °C
Oc1ccc2c(c1)COc1c-2cc2ccc(O)cc2c1-c1ccccc1Cl | 220 to 222 °C
CCC12CCC(=O)C=C1c1c(cc(OCC#N)c(Cl)c1Cl)C2 (stereo unspecified) | 171 to 172 °C
CC(C)C[C@@H](C(=O)O)N1C(=O)NC(C(F)(F)F)(C(F)(F)F)C1=O | 154 to 156 °C
NC(=O)NC1CCN(Cc2ccccc2)CC1 | 140 °C
CCC(CC)Oc1nc(C)nc(Nc2c(C)cc(C)cc2C)c1C(=O)O | 118 to 120 °C
O=C1c2ccccc2-c2c1c1c(c(=O)n2CCCCNS(=O)(=O)c2ccccc2)C=CCC1 | 184 to 186 °C
CCCc1c2oc(C#N)cc(=O)c2cc2c(=O)cc(C(=O)OCC)oc12 | 182 to 184 °C
CCOC(=O)Cc1ccc(CC2(CNS(=O)(=O)c3ccc(Cl)cc3)CCCC2)cc1 | 117 to 119 °C
O=C(O)c1ccnc(-c2ccc(Cl)c(C(=O)NCC34CC5CC(CC(C5)C3)C4)c2)c1 | 284 to 287 °C
NC(=O)c1ccccc1N1CCC1COc1cncc(F)c1 (stereo unspecified) | 71 to 72 °C
CCn1c2ccccc2c2cc(C(C#N)=C(C#N)c3ccc(C(F)(F)F)cc3)ccc21 | 180 to 182 °C
CC(=O)N1CCC(OCCOc2ccc(C(N)=O)cc2)CC1 | 154 to 155 °C
COc1cc(C(C)=O)ccc1OCCCN1C2CCC1CC(c1n[nH]c3ccccc13)C2 (stereo unspecified) | 173 to 175 °C
CC(C)(C)OC(=O)C(C)(C)ON=C(C(=O)O)c1cccs1 | 201 to 202 °C
CC1=C(C(=O)Nc2cc(Cl)ccc2Cl)SC2=NCCN21 | 217 to 219 °C
O=[N+]([O-])c1cc2nc(Cl)n(C3OC(CO)C(O)C3O)c2cc1[N+](=O)[O-] (stereo unspecified) | 132 to 135 °C
CC(=O)c1nnc2n1-c1sc(Cl)cc1C(c1ccccc1Cl)=NC2 | 89 to 91 °C
N#Cc1c(N2CCc3ccccc3CC2)nc(CCO)n(CCO)c1=O | 164 °C
COc1ccc2nc(C(=O)O)cnc2c1 | 248 °C
O=C1NC(O)C2=C1c1ccc(Cl)cc1C(c1ccccc1Cl)=NC2 (stereo unspecified) | 221 to 222 °C

Compound | melting point
COc1ccc(-n2nnnc2CC(=O)C(F)(F)F)cc1C=O | 128 °C
CC(C)(C)n1nnc(Cc2ccc(Br)cc2)n1 | 69 to 70 °C
C=CCOc1ncc(F)c(C2(C(=O)NN)C=CC=C(C)C2)n1 (stereo unspecified) | 181 to 185 °C
Nc1cn(C2CCN(c3c(F)cc4c(=O)c(C(=O)O)cn(C5CC5)c4c3F)C2)nn1 (stereo unspecified) | 221 °C
CCOC(=O)CC(NC(=O)c1cccc(NC(=O)c2cnc(NC(=N)N)s2)c1)c1ccccc1 (racemic) | 149 °C
CC(=O)c1cccc(-c2ccc3nc(-c4ccc(Cl)cc4)cn3c2)c1 | 173 to 175 °C
Cn1cc(C2=C(c3c4n(c5ccccc35)CCC(CNC(=O)OC(C)(C)C)C4)C(=O)N(O)C2=O)c2ccccc21 (stereo unspecified) | 238 to 240 °C
C=CCc1c(OCC=Cc2ccccc2)ccc2c1CCC(=O)N2CC=Cc1ccccc1 | 66 to 68 °C
Brc1ccc2cc(SN3CCN(c4ccncc4)CC3)ccc2c1 | 200 to 202 °C
CC(=S)NCC1CN(c2ccc3c(c2)CC(C(C)(C)C)N3C=O)C(=O)O1 (stereo unspecified) | 219 to 221 °C
CC(=O)NCCc1ccc(CN2CCN(c3ccccc3)CC2)cc1 | 117 to 118 °C
O=C(CS(=O)(=O)Cc1cccs1)C12CC3CC(CC(C3)C1)C2 | 95.5 to 98 °C
CC(C)(C)NC(=O)[C@@H]1C[C@@H](O)CN1C(=O)OC(C)(C)C | 192 to 193 °C
COC(=O)N1CCC(C2(NO)OCCO2)C(=O)C1 (stereo unspecified) | 150 to 152 °C
O=[N+]([O-])O[C@H]1COc2c(O)cccc2C1 | 129 to 130 °C
O=P(O)(O)CCCCCCCCCCCC(F)(F)C(F)(F)C(F)(F)C(F)(F)C(F)(F)C(F)(F)C(F)(F)C(F)(F)F | 115 to 117 °C
N#Cc1cnc(N[C@@H]2CCCc3ccccc32)nc1N | 168 °C
Cc1ccc(S(=O)(=O)c2nc(Cl)c([N+](=O)[O-])s2)cc1 | 153 to 154 °C
COc1ccc(CC(=O)N2CCn3c(c(C(N)=O)c(Cl)c3-c3ccccc3)C2)cc1 | 146 to 148 °C
CCCc1ccc(C(=O)Nc2ccc3c(c2)CCC3=O)cc1 | 181 to 184 °C
Cc1cc(F)ccc1-c1nc(N[C@@H](C)CO)nc2c1ccc(=O)n2-c1c(F)cccc1F | 90 to 95 °C
O=C(O)CCC/C=C/c1ccc2ccccc2n1 | 142 to 144 °C
O=Cc1ccc2c(c1)S(=O)(=O)c1ccccc1N2c1ccccc1 | 260 to 272 °C
O=[N+]([O-])c1cnc2ccc(-c3ccccc3)cc2c1Cl | 144 to 145 °C
CCOC(=O)CCCCC=Cc1cccc(Oc2cccc(C=O)c2)c1 | 142 to 145 °C
CCC[C@H]1CC[C@H](c2ncc(C#N)cn2)CC1 | 74 °C

Compound | melting point
CN(C)C(=O)c1cccnc1S | 200 to 208 °C
CC(C)n1c(=O)[nH]oc1=O | 150 °C
O=C(c1ccccc1)c1nsc(N2CCN(c3ccccn3)CC2)n1 | 110 to 111 °C
CC(C)(C)NC(=O)c1cc(Cl)ccc1N | 126 to 127 °C
O=C(O)c1cn(-c2ccc(F)cc2F)c2c(F)c(N3Cc4ccc(Br)cc4C3)c(F)cc2c1=O | 251 to 257 °C
NC1CCC(C(=O)Nc2cccc(-c3cccc4c3/C(=C/c3ccc[nH]3)C(=O)N4)c2)CC1 (stereo unspecified) | 210 to 212 °C
CC1(C)C(C=CC(=O)Cl)C1C(=O)OC(C#N)c1cccc(Oc2ccccc2)c1 (stereo unspecified) | 86 °C
CC(=O)N1CCC(O)(Cn2nc(-c3c(-c4ccccc4)nn4ccccc34)ccc2=O)CC1 | 163 to 165 °C
Nc1nc(NC2CC2)c2ncn([C@@H]3C[C@H](CO)[C@@H](O)C3)c2n1 | 174 to 176 °C
CC(C)(O)Cn1cnc2c(Cl)nc3ccccc3c21 | 196 to 199 °C
CCCCCCCCCCc1nc(N(C)C)nc(OC)c1O | 59 to 60 °C
CCOC(=O)C1C=Nc2c(cccc2[N+](=O)[O-])C1=O (stereo unspecified) | 241 to 243 °C
CC(Oc1cc2sc(NC(=O)NCCN3CCOCC3)nc2cc1Cl)c1c(Cl)ccc(F)c1Cl (stereo unspecified) | 196 to 198 °C
COC(=O)CS(=O)C(C)c1ccc(-c2ccccc2)c(F)c1 (stereo unspecified) | 161 to 163 °C
COC(=O)C1CCC(OC2=C3N=c4ccccc4=C3C(Cc3ccc(F)cc3)C=C2)O1 (stereo unspecified) | 85 to 86 °C
CC(=O)OCc1nc2c([N+](=O)[O-])cc(Br)cc2n1C | 143 to 145 °C
O[C@@H](CNCCOc1ccc2cc(-c3ccon3)oc2c1)COc1ccccc1 | 107 to 110 °C
CCCn1c(=O)c(-c2ccccc2)c2n(c1=O)CCC(Sc1ccccc1)S2 (stereo unspecified) | 126 to 127 °C
OCc1nn(Cc2ccccc2)c2ccccc12 | 85 to 86 °C
Cc1c(NC(=O)CC(C)(C)C)c(C)c2c(c1C(=O)c1ccccc1)OC[C@@H]2c1ccc(C(C)C)cc1 | 205 to 206 °C
O=C(Nc1ccccc1O)c1ccc(OCCCCc2ccccc2)cc1 | 116 to 117 °C
CCOC(=O)C(=O)CC(=O)N1CCOCC1 | 60 °C
COc1ccc(NC(=O)O[C@H]2COC(c3ccccc3)=N[C@@H]2c2ccccc2)cc1 (racemic) | 140 °C
